Reference: article PMC10526672, “A genome-wide CRISPR/Cas9 screen identifies DNA-PK as a sensitiser to ^177Lutetium-DOTA-octreotate radionuclide therapy” (Theranostics, 2023)

What was measured:
H1299-7 cells [1] = experiment: Cell growth assay over 14 days, LuTate alone or with DNA-PK inhibitor; assay type: cell-based, human; conditions: parental H1299-7 cells, 20 MBq/mL LuTate
From the text: Total Cells = Cell Number counted (1 well) × Number of Wells required
Number of Wells required going forward = Total Cells/0.2 × 10^6
Cell growth was normalised to the appropriate control for each experiment. […] All assays were repeated as at least biological triplicates.

H1299-7 Artemis KO cells = experiment: Cell growth assay over 14 days; assay type: cell-based, human
Experimental: (§1) Two gRNA (from the Brunello library, as determined in the MaGeCK count files) with the most significant enrichment or depletion for the genes to be validated, were pooled and nucleofected into H1299-7 Cas9 cells, using the Amaxa 4D nucleofector (Lonza), solution SF and program EW-127 (Lonza, optimised protocol for H1299 cells). Cells were nucleofected with 75 pmol of each gRNA in 20 μl (gRNA from Integrated DNA Technologies, sequences in supplementary Table 2). Efficiency of gene knockout was determined at 72 h post nucleofection through western blot or DNA sequencing. The resulting cell lines were H1299-7 Beta-Arrestin 2 knockout (KO), MVP KO, Artemis KO, and DNA-PK KO.
(§2) For LuTate treatment, aliquots of 4 × 10^6 cells were collected and resuspended in 500 μl DMEM + 1% FCS, and treated with either 0, 5, 10 or 20 MBq/mL LuTate for 4 h in suspension at 37°C and 5% CO2 with mixing every hour. Cells were resuspended in 4 mL full media and plated in 6 well plates at a concentration of 0.5 × 10^6 cells per well. For drug combination experiments, 24 h post LuTate treatment, cells were treated with either 0.5 μM or 1 μM of either AZD-7648 or nedisertib.
(§3) Cell growth was tracked over a 14-day period. Cells were counted and replated at 0.2 × 10^6 cells per well on Days 2, 6 and 9, with a final count on Day 14. Because of the exponential growth or significant lethality of the various cultures, not all cells were necessarily re-seeded at each subculture interval. However, the cell growth assay data is corrected for the fraction of cells re-plated so the data is expressed for all conditions as though all cells were re-plated at each interval (illustrated in Supplementary Figure S1). The total number of cells is thus the theoretical total number of cells over time if all cells at each subculture interval were re-seeded at identical density, calculated by: […]
(§4) Cell growth was normalised to the appropriate control for each experiment. For growth curves showing validation of the CRISPR result, results were graphed showing the alteration in cell population, as compared to control, over time (out to Day 14). For all other assays (combination experiments, and experiments using AR42J or SKNBE-2 cells), results are shown comparing cell population at the Day 14 timepoint. All assays were repeated as at least biological triplicates.

[2] = test system: H1299-7 Beta-Arrestin 2 KO cells; experiment: Cell growth assay over 14 days; assay type: cell-based, human
Experimental: as §1, §2, §3, §4

H1299-7 DNA-PK KO cells = experiment: Cell growth assay over 14 days; assay type: cell-based, human
Experimental: as §1, §2, §3, §4

H1299-7 MVP KO cells [3] = experiment: Cell growth assay over 14 days; assay type: cell-based, human; conditions: 5 MBq/mL LuTate
Experimental: as §1, §2, §3, §4

SKNBE-2 cells = experiment: Cell growth assay, Day 14; assay type: cell-based, human
Experimental: as §2, §3
Cell growth was normalised to the appropriate control for each experiment. […]

[4] = test system: H1299-7 Beta-Arrestin 2 KO cells; experiment: LuTate retention assay; assay type: cell-based, human; conditions: 4 h treatment with 5 MBq/mL LuTate then 24 h in fresh medium, gamma counter, biological triplicates, p-value 0.01 vs control
Experimental: (§5) H1299-7, H1299-7 Cas9, MVP KO and Beta-Arrestin 2 KO cells were treated with either 0 or 5 MBq/mL LuTate using the same suspension protocol as for the growth experiments. After 4 h of treatment, cells were washed and triplicate aliquots collected for the 4 h timepoint, and the remaining cells plated in triplicate in 6 well plates for 24 h. For collection of samples, cells were spun down, washed twice, and resuspended in 500 μl PBS. All experiments were repeated as biological triplicates. Samples were stored at RT for 2-3 half-lives of LuTate (2-3 weeks), before being counted on the Captus 4000e gamma counter (Capintec). Percent LuTate retained by the cells was calculated as a percent of total activity added and averaged across the triplicate experiments.

H1299-7 MVP KO cells [5] = experiment: LuTate retention assay; assay type: cell-based, human; conditions: 5 MBq/mL LuTate for 4 h
Experimental: as §5

H1299-7 cells [6] = experiment: LuTate retention assay; assay type: cell-based, human; conditions: H1299-7 control cells, 4 h treatment with 5 MBq/mL LuTate then 24 h in fresh medium, gamma counter, biological triplicates
Experimental: as §5

H1299-7 xenografts = experiment: H1299-7 xenograft in BALB/c nude mice; assay type: in vivo; conditions: single agent: 6 MBq LuTate single iv dose, or nedisertib 150 mg/kg oral for 6 days
Experimental: (§6) All animal experiments were performed with approval from the Peter MacCallum Cancer Centre Animal Experimentation Ethics Committee, and in accordance with the Australian code for the care and use of animals for scientific purposes (8th Edition, 2013). Four- to seven-week-old female BALB/c nude mice were sourced from Animal Resources Centre (Canning Vale, Western Australia). 3 × 10^6 AR42J or 5 × 10^6 H1299-7 cells were subcutaneously implanted onto the right flank of the mice in a 50% Matrigel (Corning):PBS mixture. Mice were weighed, and tumours measured twice weekly using electronic calipers. Tumour volume (mm^3) was calculated as length × width × height × π/6. Once tumours reached a volume of 50-300 mm^3, the animals were randomised into groups of 9-10 mice and injected intravenously with a single dose (5-10 MBq in 100-200 μL) LuTate or vehicle (saline). At 24 h post LuTate injection mice began once-daily oral dosing of DNA-PK inhibitor nedisertib (150 mg/kg) or vehicle (10% DMSO, 40% PEG300, 5% Tween-80, 45% saline) in a volume of 10 ml/kg for 6 consecutive days. Mice were monitored 2-3 times weekly for overall weight as an indicator of murine health and tumour volume measured. Mice were euthanised once the tumour volume exceeded 1200 mm^3.

AR42J tumours = experiment: AR42J xenograft in BALB/c nude mice; assay type: in vivo, mouse
Experimental: as §6

unselected tumours = conditions: phase I clinical trial, cited from earlier work
From the text: To this end, several clinical trials are evaluating the tolerability and efficacy of nedisertib in humans. […] Current clinical trials are focusing on the combination of nedisertib and radiotherapy in the setting of pancreatic cancers (NCT04172532) and glioblastoma and gliosarcoma (NCT04555577), as well as others. Additionally, there are two studies investigating the combination ...

Compound | survival (expansion of parental cells) (H1299-7 cells [1]) | times more sensitive to LuTate than control cells (H1299-7 Artemis KO cells; 5 MBq/mL LuTate, Day 14, p value 0.0021) | cell population by Day 14 (H1299-7 Artemis KO cells; 10 MBq/mL LuTate) | relative growth (% of control) at Day 14 (H1299-7 Artemis KO cells; 10 MBq/mL LuTate for 4 h in suspension) | relative growth (% of control) at Day 14 (H1299-7 Artemis KO cells; 20 MBq/mL LuTate for 4 h) | increase in relative growth versus parental H1299-7 cells ([2]; 5 MBq/mL LuTate) | increase in survival versus parental H1299-7 cells ([2]; 10 MBq/mL LuTate, p-value 0.015) | times more sensitive to LuTate than control cells (H1299-7 DNA-PK KO cells; 5 MBq/mL LuTate, Day 14, p value 0.0017) | cell population by Day 14 (H1299-7 DNA-PK KO cells; 10 MBq/mL LuTate) | increase in relative growth versus parental H1299-7 cells (H1299-7 MVP KO cells [3]) | reduction of survival (SKNBE-2 cells; 20 MBq/mL LuTate alone, Day 14) | effect on cell survival (SKNBE-2 cells; LuTate doses of less than 10 MBq/mL) | LuTate retained (percent of total activity added) [4] | amount of LuTate retained versus control cells (H1299-7 MVP KO cells [5]) | LuTate retained (percent of total activity added) (H1299-7 cells [6]) | impact on tumour growth or survival compared to untreated controls (H1299-7 xenografts) | tumour control post the end of treatment (AR42J tumours; AR42J tumours, 9 MBq LuTate single dose with or without 6 days nedisertib 150 mg/kg, 9-10 mice per group) | median survival (AR42J tumours; AR42J xenograft mice, 9 MBq LuTate with or without nedisertib 150 mg/kg for 6 days, vehicle control 10 days, p-value 0.0001) | efficacy in humans (unselected tumours; unselected tumours) | tolerability in humans (unselected tumours)
C[C@@H](O)[C@H](NC(=O)[C@@H]1CSSC[C@H](NC(=O)[C@@H](Cc2ccccc2)NC(=O)CN2CCN(CC(=O)[O-])CCN(CC(=O)[O-])CCN(CC(=O)[O-])CC2)C(=O)N[C@@H](Cc2ccc(O)cc2)C(=O)N[C@H](Cc2c[nH]c3ccccc23)C(=O)N[C@@H](CCCCN)C(=O)N[C@@H]([C@@H](C)O)C(=O)N1)C(=O)O.[177Lu+3] [LuTate, ^177Lutetium-DOTA-octreotate] | < 0.1% | 20 times | almost completely eradicated | 0.0038% | 0.000296% | two-fold | four-fold | 10 times | almost completely eradicated | two-fold | 50% | little effect | 14.5% | no alteration | 32% | no impact | 10 days | 28 days |  | 
COc1ccc([C@@H](O)c2cc(-c3ncnc4cc(N5CCOCC5)ccc34)c(F)cc2Cl)nn1 [nedisertib] |  |  |  |  |  |  |  |  |  |  |  |  |  |  |  | no impact |  |  | modest efficacy | well tolerated
